# Patent US20120309773A1, “HETEROCYCLIC COMPOUNDS AS JANUS KINASE INHIBITORS” (priority 2009, published 2012)
row,SMILES,melting point [°C]
1,"O=C(NC1CCC1)c1cc(Nc2nc(N3CCCC3c3ccccn3)nc3ccoc23)[nH]n1 (centres unmarked) [Compound 13E, N-cyclobutyl-5-(2-(2-(pyridin-2-yl)pyrrolidin-1-yl)furo[3,2-d]pyrimidin-4-ylamino)-1H-pyrazole-3-carboxamide]",250.1
2,"O=C(NC1CC1)c1cc(Nc2nc(N3CCCC3c3ccccn3)nc3ccoc23)[nH]n1 (centres unmarked) [Compound 12E, N-cyclopropyl-5-(2-(2-(pyridin-2-yl)pyrrolidin-1-yl)furo[3,2-d]pyrimidin-4-ylamino)-1H-pyrazole-3-carboxamide]",238.4

# Other lines, results leading:
row,melting point [°C],SMILES
1,96.8,"O=C(NC1CC1)c1cc(Nc2nc(N3CCC[C@H]3CO)nc3ccoc23)n[nH]1 [Compound 15C, (S)—N-cyclopropyl-3-(2-(2-(hydroxymethyl)pyrrolidin-1-yl)furo[3,2-d]pyrimidin-4-ylamino)-1H-pyrazole-5-carboxamide]"
2,270.8,"CN(C)c1nc(Nc2cc(C(=O)NC3CCC3)n[nH]2)c2occc2n1 [Compound 19A, N-cyclobutyl-5-(2-(dimethylamino)furo[3,2-d]pyrimidin-4-ylamino)-1H-pyrazole-3-carboxamide]"
3,274.3,"O=C(NC1CCC1)c1cc(Nc2nc(N3CCCC3c3ccccn3)nc3ccoc23)n[nH]1 (centres unmarked) [Compound 14F, N-cyclobutyl-3-(2-(2-(pyridin-2-yl)pyrrolidin-1-yl)furo[3,2-d]pyrimidin-4-ylamino)-1H-pyrazole-5-carboxamide]"
